Experimental data taken from patent publication US20140349989A1, “COMPOUNDS AND THERAPEUTIC USES THEREOF” (Alzheimer's Institute of America, priority 2011, published 2014).

How the values were obtained:
[1] = Cytotoxicity Assay (HCT116, CellTiter-Glo); assay type: cell-based; settings: human, HCT116 cell cytotoxicity IC50
How it was run: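 Cells settled overnight, then exposed to compound in DMSO for 72 h, optionally with nicotinic acid (10 μM final) added alongside. Viability read as CellTiter-Glo luminescence.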

Human NAMPT = target: T1, Human NAMPT (Homo sapiens, UniProt P43490); assay: Nampt Activity Assay (coupled enzyme fluorometric, resazurin/diaphorase); assay type: biochemical; settings: His-tagged human NAMPT, 3 μM NAM, 8 μM PRPP, room temperature up to 3 hours; read-out: in vitro IC50 (Nampt catalytic activity)
T1 construct: 6xHis (N); made in house; host or cells: E. coli BL21-AI
Text: 5-phosphoribosyl-1-pyrophosphate (PRPP), ATP, NaM, NaMN, Triton X-100, UDP-glucose and diaphorase were purchased from Sigma-Aldrich, St. Louis, Mo. Human NAMPT, NMN adenylyltransferase (NMNAT1) and UDP-glucose dehydrogenase (UGDH) encoding DNAs were each inserted into a house-modified E. Coli expression vector such that the expressed proteins carried an N-terminal 6×His tag. The His-tagged proteins were expressed in the BL21-AI E. Coli expression strain (Invitrogen Corporation, Carlsbad, Calif.) following induction by 0.2% L-arabinose and 0.5 mM IPTG at 30° C. Proteins were purified on Ni-NTA resin (Qiagen, Germantown, Md.).
The assay for Nampt catalytic activity was constructed based on a previously published coupled enzyme fluorometric technique, which employs NADH as ultimate analyte (Revollo, J. R. et al. Biol. Chem. 279, 50754-50763 (2004)). A substantial improvement in assay sensitivity was achieved by switching from direct detection to a resazurin/diaphorase-based fluorometric detection system for NADH (Guilbault, G. G., and Kramer, D. N. Anal. Chem. 37, 1219-1221 (1965)). The standard inhibition analyses were performed in a real-time mode in 96-well microtiter plates using 50 mM Tris-HCl, pH 7.5, 1% DMSO (v/v), 0.01% Triton X-100 (v/v), 10 mM MgCl2, 2 mM ATP, 3 μM NAM, 8 μM PRPP, […], as well as the following detection reagents: 5 nM Nmnat, 200 nM Ugdh, 200 μM UDP-glucose, 0.02 U/mL diaphorase and 0.25 μM resazurin. Incubation of samples at room temperature for up to 3 hours was followed by quantification of fluorescence intensities at excitation and emission wavelengths of 510 nm and 590 nm, respectively, using Gemini XS plate reader (Molecular Devices, Sunnyvale, Calif.). The counter-assay intended to disqualify false positives, such as inhibitors of detection enzymes or fluorescence quenchers, was carried out essentially as described above with an exception that 1 μM NaMN was substituted for Nampt.

T1 sequence (P43490 whole entry): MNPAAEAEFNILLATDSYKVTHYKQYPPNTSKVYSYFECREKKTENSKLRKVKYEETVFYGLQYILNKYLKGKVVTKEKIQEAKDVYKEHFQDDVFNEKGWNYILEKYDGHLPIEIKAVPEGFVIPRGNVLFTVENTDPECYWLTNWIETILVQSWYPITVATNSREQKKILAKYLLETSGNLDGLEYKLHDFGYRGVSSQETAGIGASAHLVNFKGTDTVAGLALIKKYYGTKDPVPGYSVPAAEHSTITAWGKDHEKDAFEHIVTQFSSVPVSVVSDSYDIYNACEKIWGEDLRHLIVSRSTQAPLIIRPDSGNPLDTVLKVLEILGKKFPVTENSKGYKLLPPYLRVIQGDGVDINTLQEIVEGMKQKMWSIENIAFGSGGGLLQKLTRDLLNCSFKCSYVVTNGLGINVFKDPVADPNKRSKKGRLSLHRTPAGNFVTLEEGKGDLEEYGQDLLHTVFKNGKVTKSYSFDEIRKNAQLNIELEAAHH

IC50 (Human NAMPT): ~1 nM
SMILES: O=C(NCc1cccnc1)Nc1ccc(-n2cc(C(=O)N3CCC(N4CCOCC4)CC3)c3cccnc32)cc1 [Compound 27, 1-[4-[3-(4-morpholinopiperidine-1-carbonyl)pyrrolo[2,3-b]pyridin-1-yl]phenyl]-3-(3-pyridylmethyl)urea]
IC50 at 72 h [1]: ~4 nM
